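Each compound was tested at five concentrations against cells in 96-well plates for 48 hours. TGI is the concentration that stops growth completely.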
Tests used:
Assay in all cases: NCI anticancer screen, dose series, 48 h
786-0 renal = system: 786-0 renal
A498 renal = system: A498 renal
A549 NSCLC = system: A549 NSCLC
ACHN renal = system: ACHN renal
BT-549 breast = system: BT-549 breast
CCRF-CEM leukemia = system: CCRF-CEM leukemia
COLO 205 colon = system: COLO 205 colon
DU-145 prostate = system: DU-145 prostate
EKVX NSCLC = system: EKVX NSCLC
HCC-2998 colon = system: HCC-2998 colon
HCT-116 colon = system: HCT-116 colon
HCT-15 colon = system: HCT-15 colon
HL-60(TB) leukemia = system: HL-60(TB) leukemia
HOP-62 NSCLC = system: HOP-62 NSCLC
HOP-92 NSCLC = system: HOP-92 NSCLC
HS 578T breast = system: HS 578T breast
HT29 colon = system: HT29 colon
IGROV1 ovarian = system: IGROV1 ovarian
K-562 leukemia = system: K-562 leukemia
KM12 colon = system: KM12 colon
LOX IMVI melanoma = system: LOX IMVI melanoma
M14 melanoma = system: M14 melanoma
MALME-3M melanoma = system: MALME-3M melanoma
MCF7 breast = system: MCF7 breast
MDA-MB-231 breast = system: MDA-MB-231 breast
MDA-MB-435 = system: MDA-MB-435
MDA-N = system: MDA-N
MOLT-4 leukemia = system: MOLT-4 leukemia
NCI-H226 lung = system: NCI-H226 lung
NCI-H23 lung = system: NCI-H23 lung
NCI-H460 lung = system: NCI-H460 lung
NCI-H522 lung = system: NCI-H522 lung
NCI/ADR-RES ovarian = system: NCI/ADR-RES ovarian
OVCAR-3 ovarian = system: OVCAR-3 ovarian
OVCAR-4 ovarian = system: OVCAR-4 ovarian
OVCAR-5 ovarian = system: OVCAR-5 ovarian
OVCAR-8 ovarian = system: OVCAR-8 ovarian
PC-3 prostate = system: PC-3 prostate
RPMI-8226 leukemia = system: RPMI-8226 leukemia
RXF 393 renal = system: RXF 393 renal
SF-268 CNS = system: SF-268 CNS
SF-295 CNS = system: SF-295 CNS
SF-539 CNS = system: SF-539 CNS
SK-MEL-2 melanoma = system: SK-MEL-2 melanoma
SK-MEL-28 melanoma = system: SK-MEL-28 melanoma
SK-MEL-5 melanoma = system: SK-MEL-5 melanoma
SK-OV-3 ovarian = system: SK-OV-3 ovarian
SN12C renal = system: SN12C renal
SNB-19 CNS = system: SNB-19 CNS
SNB-75 CNS = system: SNB-75 CNS
SR leukemia = system: SR leukemia
SW-620 colon = system: SW-620 colon
T-47D breast = system: T-47D breast
TK-10 renal = system: TK-10 renal
U251 CNS = system: U251 CNS
UACC-257 melanoma = system: UACC-257 melanoma
UACC-62 melanoma = system: UACC-62 melanoma
UO-31 renal = system: UO-31 renal
CAKI-1 renal = system: CAKI-1 renal

Work on COC(=O)C1=C([C@H]2COC(C)(C)O2)[C@H]2C[C@@H]1[C@@H]1OC(C)(C)O[C@@H]12 yielded a TGI (786-0 renal) of over 100 µM, a TGI (A498 renal) of over 100 µM and a TGI (A549 NSCLC) of over 100 µM. For the same molecule, the TGI (ACHN renal) was over 100 µM, the TGI (BT-549 breast) was over 100 µM and the TGI (CCRF-CEM leukemia) was over 100 µM. It also gave a TGI (COLO 205 colon) of over 100 µM, a TGI (DU-145 prostate) of over 100 µM and a TGI (EKVX NSCLC) of over 100 µM. It also gave a TGI (HCC-2998 colon) of over 100 µM, a TGI (HCT-116 colon) of over 100 µM and a TGI (HCT-15 colon) of over 100 µM. It also gave a TGI (HL-60(TB) leukemia) of over 100 µM, a TGI (HOP-62 NSCLC) of over 100 µM and a TGI (HOP-92 NSCLC) of over 100 µM. It also gave a TGI (HS 578T breast) of over 100 µM, a TGI (HT29 colon) of over 100 µM and a TGI (IGROV1 ovarian) of over 100 µM. For the same molecule, the TGI (K-562 leukemia) was over 100 µM, the TGI (KM12 colon) was over 100 µM and the TGI (LOX IMVI melanoma) was over 100 µM. The TGI (M14 melanoma) was over 100 µM, the TGI (MALME-3M melanoma) was over 100 µM and the TGI (MCF7 breast) was over 100 µM. It also gave a TGI (MDA-MB-231 breast) of over 100 µM, a TGI (MDA-MB-435) of over 100 µM and a TGI (MDA-N) of over 100 µM. For the same molecule, the TGI (MOLT-4 leukemia) was over 100 µM, the TGI (NCI-H226 lung) was over 100 µM and the TGI (NCI-H23 lung) was over 100 µM. The TGI (NCI-H460 lung) was over 100 µM, the TGI (NCI-H522 lung) was over 100 µM and the TGI (NCI/ADR-RES ovarian) was over 100 µM. The TGI (OVCAR-3 ovarian) was over 100 µM, the TGI (OVCAR-4 ovarian) was over 100 µM and the TGI (OVCAR-5 ovarian) was over 100 µM. The TGI (OVCAR-8 ovarian) was over 100 µM, the TGI (PC-3 prostate) was over 100 µM and the TGI (RPMI-8226 leukemia) was over 100 µM. The TGI (RXF 393 renal) was over 100 µM, the TGI (SF-268 CNS) was over 100 µM and the TGI (SF-295 CNS) was over 100 µM. For the same molecule, the TGI (SF-539 CNS) was over 100 µM, the TGI (SK-MEL-2 melanoma) was over 100 µM and the TGI (SK-MEL-28 melanoma) was over 100 µM. The TGI (SK-MEL-5 melanoma) was over 100 µM, the TGI (SK-OV-3 ovarian) was over 100 µM and the TGI (SN12C renal) was over 100 µM. It also gave a TGI (SNB-19 CNS) of over 100 µM, a TGI (SNB-75 CNS) of over 100 µM and a TGI (SR leukemia) of over 100 µM. The TGI (SW-620 colon) was over 100 µM, the TGI (T-47D breast) was over 100 µM and the TGI (TK-10 renal) was over 100 µM. It also gave a TGI (U251 CNS) of over 100 µM, a TGI (UACC-257 melanoma) of over 100 µM and a TGI (UACC-62 melanoma) of over 100 µM. It also gave a TGI (UO-31 renal) of over 100 µM.

O=C1N[C@H]2C(=O)c3c(Cl)sc(Cl)c3[C@H]2O1 gave a TGI (786-0 renal) of 31.3 µM, a TGI (A498 renal) of 60.5 µM and a TGI (A549 NSCLC) of 40 µM. The TGI (ACHN renal) was 21 µM, the TGI (BT-549 breast) was 54.5 µM and the TGI (CAKI-1 renal) was 9.7 µM. For the same molecule, the TGI (CCRF-CEM leukemia) was 10.9 µM, the TGI (COLO 205 colon) was 21.3 µM and the TGI (DU-145 prostate) was 23.7 µM. It also gave a TGI (EKVX NSCLC) of 3.85 µM, a TGI (HCC-2998 colon) of 3.6 µM and a TGI (HCT-116 colon) of 8.73 µM. It also gave a TGI (HCT-15 colon) of 16.6 µM, a TGI (HL-60(TB) leukemia) of 4.91 µM and a TGI (HOP-62 NSCLC) of 34.5 µM. The TGI (HOP-92 NSCLC) was 26.4 µM, the TGI (HS 578T breast) was 67.1 µM and the TGI (HT29 colon) was 6.23 µM. It also gave a TGI (IGROV1 ovarian) of 10.6 µM, a TGI (K-562 leukemia) of 5.09 µM and a TGI (KM12 colon) of 44.2 µM. The TGI (LOX IMVI melanoma) was 6.97 µM, the TGI (M14 melanoma) was 19.6 µM and the TGI (MALME-3M melanoma) was 33 µM. The TGI (MCF7 breast) was 52.5 µM, the TGI (MDA-MB-231 breast) was 32 µM and the TGI (MDA-MB-435) was 17.8 µM. The TGI (MDA-N) was 14.7 µM, the TGI (MOLT-4 leukemia) was 8.22 µM and the TGI (NCI-H226 lung) was over 100 µM. For the same molecule, the TGI (NCI-H23 lung) was 22.5 µM, the TGI (NCI-H460 lung) was 39.4 µM and the TGI (NCI-H522 lung) was 8.83 µM. It also gave a TGI (NCI/ADR-RES ovarian) of over 71.5 µM, a TGI (OVCAR-3 ovarian) of 3.54 µM and a TGI (OVCAR-5 ovarian) of 37.7 µM. For the same molecule, the TGI (OVCAR-8 ovarian) was 7.74 µM, the TGI (PC-3 prostate) was 31 µM and the TGI (RPMI-8226 leukemia) was 59.1 µM. For the same molecule, the TGI (RXF 393 renal) was 9.31 µM, the TGI (SF-268 CNS) was 22.4 µM and the TGI (SF-295 CNS) was 32.1 µM. The TGI (SF-539 CNS) was 20.6 µM, the TGI (SK-MEL-2 melanoma) was 43.4 µM and the TGI (SK-MEL-28 melanoma) was 23.2 µM. The TGI (SK-MEL-5 melanoma) was 35 µM, the TGI (SK-OV-3 ovarian) was 28.9 µM and the TGI (SN12C renal) was 30.3 µM. The TGI (SNB-19 CNS) was 29.9 µM, the TGI (SNB-75 CNS) was 30.4 µM and the TGI (SR leukemia) was 6.71 µM. The TGI (SW-620 colon) was 5.4 µM, the TGI (T-47D breast) was 29.2 µM and the TGI (TK-10 renal) was 70.8 µM. The TGI (U251 CNS) was 11.6 µM, the TGI (UACC-257 melanoma) was 23 µM and the TGI (UACC-62 melanoma) was 28.2 µM. It also gave a TGI (UO-31 renal) of 3.24 µM.

Reference: PubChem BioAssay (NCI)
